BindingDB's records for doi:10.7270/Q2T72HDT (Dupont Pharmaceuticals, 1995)

Legend:
[1] = biological target: T1, Sterol O-acyltransferase 1 (Mus musculus, UniProt Q61263); experiment: ChEBML_28026
T1 sequence (Q61263 whole entry): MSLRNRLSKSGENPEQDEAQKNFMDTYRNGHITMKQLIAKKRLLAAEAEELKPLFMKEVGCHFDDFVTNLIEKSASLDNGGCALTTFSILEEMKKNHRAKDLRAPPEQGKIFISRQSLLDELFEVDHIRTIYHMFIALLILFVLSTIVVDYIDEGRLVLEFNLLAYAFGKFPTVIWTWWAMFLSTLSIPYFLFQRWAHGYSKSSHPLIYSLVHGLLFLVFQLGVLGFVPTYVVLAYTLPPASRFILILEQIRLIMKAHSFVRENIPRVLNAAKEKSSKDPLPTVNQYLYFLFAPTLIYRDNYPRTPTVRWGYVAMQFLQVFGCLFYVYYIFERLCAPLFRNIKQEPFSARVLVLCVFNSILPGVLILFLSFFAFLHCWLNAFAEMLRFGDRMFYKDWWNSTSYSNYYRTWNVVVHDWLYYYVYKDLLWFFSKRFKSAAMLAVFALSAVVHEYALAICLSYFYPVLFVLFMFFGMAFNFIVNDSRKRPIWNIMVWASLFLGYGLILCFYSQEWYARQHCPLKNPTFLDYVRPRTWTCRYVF
Text: Inhibition of Acyl coenzyme A:cholesterol acyltransferase (ACAT) in J774 Macrophage cell culture

[2] = biological target: T2, Sterol O-acyltransferase 1 (Rattus norvegicus, UniProt O70536); experiment: ChEBML_28360
T2 sequence (O70536 whole entry): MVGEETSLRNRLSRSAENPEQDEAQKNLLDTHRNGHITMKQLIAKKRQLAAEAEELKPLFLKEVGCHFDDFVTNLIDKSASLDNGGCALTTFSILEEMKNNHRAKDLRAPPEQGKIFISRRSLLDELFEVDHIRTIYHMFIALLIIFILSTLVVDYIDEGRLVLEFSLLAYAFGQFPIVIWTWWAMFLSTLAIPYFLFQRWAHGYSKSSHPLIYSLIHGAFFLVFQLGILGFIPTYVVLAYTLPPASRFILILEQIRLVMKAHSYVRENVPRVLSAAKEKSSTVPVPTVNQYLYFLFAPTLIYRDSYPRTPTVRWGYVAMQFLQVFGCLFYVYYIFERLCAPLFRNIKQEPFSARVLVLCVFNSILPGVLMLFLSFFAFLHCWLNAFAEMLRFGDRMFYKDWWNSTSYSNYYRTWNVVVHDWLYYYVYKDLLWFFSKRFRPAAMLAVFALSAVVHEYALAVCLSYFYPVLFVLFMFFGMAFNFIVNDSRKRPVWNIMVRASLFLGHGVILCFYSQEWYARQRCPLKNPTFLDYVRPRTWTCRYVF
Text: In vitro inhibition of Acyl coenzyme A:cholesterol acyltransferase (ACAT) in rat hepatic microsomes

Structure (SMILES) | IC50 [1] [nM] | IC50 [2] [nM]
COc1ccc(-c2nc(SCCCCCN(CCCCCSc3nc(-c4ccccc4)c(-c4ccccc4)[nH]3)C(=O)NC(C)C)[nH]c2-c2ccc(OC)cc2)cc1 | 100 | 90
COc1ccc(-c2nc(SCCCCCN(CCCCCSc3nc(-c4ccc(OC)cc4)c(-c4ccc(OC)cc4)[nH]3)C(=O)NC(C)C)[nH]c2-c2ccc(OC)cc2)cc1 | 10 | 90
CN(C)c1ccc(-c2nc(SCCCCCN(CCCCCSc3nc(-c4ccccc4)c(-c4ccccc4)[nH]3)C(=O)Nc3ccc(F)cc3F)[nH]c2-c2ccc(N(C)C)cc2)cc1 | 450 | 3
CN(C)c1ccc(-c2nc(SCCOCCSc3nc(-c4ccc(N(C)C)cc4)c(-c4ccc(N(C)C)cc4)[nH]3)[nH]c2-c2ccc(N(C)C)cc2)cc1 | 370 | 134
c1ccc(-c2nc(SCCCSCCCSc3nc(-c4ccccc4)c(-c4ccccc4)[nH]3)[nH]c2-c2ccccc2)cc1 | 7960 | 
O=C(Nc1ccc(F)cc1F)N(CCCCCSc1nc(-c2ccccc2)c(-c2ccccc2)[nH]1)CCc1ccccn1 | 2440 | 80
COc1ccc(-c2nc(SCCOCCSc3nc(-c4ccccc4)c(-c4ccccc4)[nH]3)[nH]c2-c2ccc(OC)cc2)cc1 | 3870 | 
c1ccc(-c2nc(SCCOCCSc3nc(-c4ccccc4)c(-c4ccccc4)[nH]3)[nH]c2-c2ccccc2)cc1 | 6550 | 26
CC(C)NC(=O)N(CCCCCSc1nc(-c2ccccc2)c(-c2ccccc2)[nH]1)CCc1ccccn1 | 3050 | 190
Cc1nc2ccccc2n1CCCSCCCSc1nc(-c2ccccc2)c(-c2ccccc2)[nH]1 | 7270 | 250
c1ccc(-c2nc(SCCCCCOCCc3ccccn3)[nH]c2-c2ccccc2)cc1 | 3920 | 
COc1ccc(-c2nc(SCCCCCN(CCc3nn[nH]n3)C(=O)NC(C)C)[nH]c2-c2ccc(OC)cc2)cc1 | 5500 | 
CC(C)NC(=O)N(CCCCCSc1nc(-c2ccccc2)c(-c2ccccc2)[nH]1)CCCCCSc1nc(-c2ccc(N(C)C)cc2)c(-c2ccc(N(C)C)cc2)[nH]1 | 60 | 30
COc1ccc(-c2nc(SCCCCCN(CCCn3ccnc3)C(=O)NC(C)C)[nH]c2-c2ccc(OC)cc2)cc1 | 5500 | 
c1ccc(-c2nc(SCCCCCSCc3ccccn3)[nH]c2-c2ccccc2)cc1 | 3930 | 310
CN(C)c1ccc(-c2nc(SCCOCCSc3[nH]cnc4ncnc3-4)[nH]c2-c2ccc(N(C)C)cc2)cc1 | 2990 | 2040
COc1ccc(-c2nc(SCCCCCN(Cc3ccccn3)C(=O)NC(C)C)[nH]c2-c2ccc(OC)cc2)cc1 | 60 | 6230
O=C(Nc1ccc(F)cc1F)N(CCCCCSc1nc(-c2ccccc2)c(-c2ccccc2)[nH]1)c1ccccn1 | 790 | 660
COc1ccc(-c2nc(SCCOCCn3c(C)nc4ccccc43)[nH]c2-c2ccc(OC)cc2)cc1 | 3430 | 
COc1ccc(-c2nc(SCCCCCN(Cc3ccccn3)C(=O)Nc3ccc(F)cc3F)[nH]c2-c2ccc(OC)cc2)cc1 | 190 | 
CC(C)NC(=O)N(CCCCCSc1nc(-c2ccccc2)c(-c2ccccc2)[nH]1)c1ccccn1 | 940 | 100
COc1ccc(-c2nc(SCCCCCN(CCc3ccccn3)C(=O)NC(C)C)[nH]c2-c2ccc(OC)cc2)cc1 | 90 | 260
COc1ccc(-c2nc(SCCCCCN(CCc3ccccn3)C(=O)Nc3ccc(F)cc3F)[nH]c2-c2ccc(OC)cc2)cc1 | 690 | 300
